Reference: US20090239217A1, “STEM-LIKE CELLS IN BONE SARCOMAS” (University of Florida Research Foundation, Inc., priority 2008, published 2009)

Tests used:
[1] = test system: Oct-4/GFP+ OS521 cells; experiment: Tumor formation in NOD/SCID mice after in vitro pretreatment of Oct-4/GFP-enriched OS521 cells with differentiation inducers; type: in vivo; settings: 3×10^4 cells per mouse
Text: It was hypothesized that if the Oct-4/GFP+ tumorigenic cells reflected a stem-like phenotype, their tumorigenic ability might also be inhibited by forced cellular differentiation. Therefore prior to delivery into the NOD/SCID mouse model, the Oct-4/GFP-enriched cell populations were pretreated in vitro with three different compounds known to be potent inducers of differentiation: ATRA, leukemia inhibitory factor (LIF), and recombinant bone morphogenetic protein (BMP) 4/7 heterodimer and evaluated their effect of each on tumorigenicity.
Following delivery of Oct-4/GFP transfected OS521 cells into NOD/SCID mice, cells isolated from the resultant tumors were sorted by FACS and the GFP-enriched population was plated in 12 well plates and treated with either LIF (10^4 to 0.5×10^2 U/ml), ATRA (1 μM), or recombinant BMP 4/7 (100 ng/ml) for 72 hours. Untreated cells were used as controls. Following the incubation period, 5 NOD/SCID mice per group were injected at 3×10^4 cells per mouse with cells from each treated pool and the mice were monitored for subsequent tumor formation. […] The BMPs are members of the TGF-β superfamily and are known to be potent agents of cellular differentiation, particularly with respect to chondro- and osteoinduction of mesenchymal progenitor cells. BMP 4/7 appears to inhibit the tumorigenesis of the Oct-4/GFP+ OS521 cells after transient induction.

[2] = test system: osteosarcoma cultures; experiment: Tumor generation by osteosarcoma cells cultured with BMP4/7; type: in vivo; settings: cells cultured in DMEM with 75-100 ng/ml BMP4/7; 10 weeks post-treatment
Procedure: (§1) Cells were cultured in DMEM and 75-100 ng/ml of BMP4/7 (control cells were not cultured with BMP4/7).

[3] = test system: Oct-4/EGFP expression; experiment: Oct-4/EGFP expression in osteosarcoma cultures treated in vitro; type: cell-based; settings: osteosarcoma cultures in DMEM with 75-100 ng/ml BMP4/7; FIG. 13
Procedure: as §1

## CC1=C(/C=C/C(C)=C/C=C/C(C)=C/C(=O)O)C(C)(C)CCC1 [ATRA, reference compound]
[1]; GFP-enriched OS521 cells treated with ATRA 1 μM for 72 hours
  tumor formation: tumor formation by 5 weeks

## leukemia inhibitory factor [LIF]
[1]; GFP-enriched OS521 cells treated with LIF 10^4 to 0.5×10^2 U/ml for 72 hours
  tumor formation: tumor formation by 5 weeks

## recombinant bone morphogenetic protein (BMP) 4/7 heterodimer [BMP 4/7]
[2]
  tumor generation by treated cells: have not yet generated tumors
[3]
  Oct-4/EGFP expression: affects Oct-4/EGFP expression
[1]; GFP-enriched OS521 cells treated with recombinant BMP 4/7 100 ng/ml for 72 hours, followed twelve weeks
  tumor formation: none of the mice in the BMP 4/7 treated group developed tumors by twelve weeks
